Results taken from patent US7291295B2, “Method for precipitating finely divided solid particles” (Sociedad Espanola de Carburos Metalicos, S.A., priority 2000, dated 2007).

Test: Particle size and size distribution of precipitate by Coulter technique using light dispersion
Assay type: physicochemical
Description: FIGS. 8, 10 and 11 show the distribution of size of the particles using the Coulter technique using light dispersion.
The geometrical characteristics of the particles of precipitate (size and distribution of sizes) are measured by the Coulter technique that uses light dispersion with Fourier lenses. Thus, by “particle size” is meant the value of the median of the curve of distribution of particles, in % in volume, and by “distribution of sizes” is meant the value of the standard deviation from the same curve.

Compound: CCCCCCCCCCCCCCCCCC(=O)O [stearic acid]
- average size of particles of precipitate (Example 7, method of the invention, ethyl acetate-CO2, 100 bar, 25° C., molar fraction of CO2 0.6): 2 μm

Compound: CCCCNc1ccc(NCCCC)c2c1C(=O)c1ccccc1C2=O [solvent blue 35]
- average size of particles of precipitate (Example 3, method of the invention, acetone-CO2, 60 bar, 25° C., 1,400 ml solution (FIG. 8)): 5 μm
- average size of particles of precipitate (Example 4, GAS process fraction (filter 11), acetone-CO2, 60 bar, 25° C. (FIG. 10)): 70 μm
- average size of particles of precipitate (Example 4, method of the invention (filter 13), acetone-CO2, 60 bar, 25° C., 640 ml solution (FIG. 11)): 4 μm

Compound: CC(=O)Nc1ccc(O)cc1 [acetaminophen]
- average size of particles of precipitate (Example 1, method of the invention, ethanol-CO2, 100 bar, 42° C., 1,750 ml solution): 15 μm
- average size of particles of precipitate (Example 2, GAS process fraction (filter 11), ethanol-CO2, 100 bar, 42° C.): 50 μm
- average size of particles of precipitate (Example 2, method of the invention (filter 13), ethanol-CO2, 100 bar, 42° C., 1,600 ml solution): 15 μm
- average size of particles of precipitate (Example 5, GAS process (filter 11), acetone-CO2, 100 bar, 42° C.): 50 μm

Compound: C1N2CN3CN1CN(C2)C3 [methenamine]
- average size of particles of precipitate (Example 8, method of the invention, ethanol-CO2, 100 bar, 25° C., molar fraction of CO2 0.7): 8 μm

Compound: CC(=O)Oc1ccccc1C(=O)O [aspirin]
- average size of particles of precipitate (Example 6, method of the invention, acetone-CO2, 70 bar, 25° C., molar fraction of CO2 0.6): 14 μm
